In patent US20240124464A1, “SUBSTITUTED FUSED BICYCLIC COMPOUND AS KINASE INHIBITOR AND USE THEREOF” (IMPACT THERAPEUTICS (SHANGHAI), INC, priority 2020, published 2024):

Experiments:
[1] = biological target: T1, NUAK1(h) enzyme (Homo sapiens, UniProt O60285); assay: In vitro NUAK1 enzymatic assay (Eurofins Discovery, [γ-33P]-ATP filter assay); format: biochemical; details: 45 μM ATP, 40 min, room temperature; read-out: IC50, inhibitory effect on NUAK1 enzyme activity
T1 construct: purchased Eurofins Discovery
T1 sequence (O60285 1-661): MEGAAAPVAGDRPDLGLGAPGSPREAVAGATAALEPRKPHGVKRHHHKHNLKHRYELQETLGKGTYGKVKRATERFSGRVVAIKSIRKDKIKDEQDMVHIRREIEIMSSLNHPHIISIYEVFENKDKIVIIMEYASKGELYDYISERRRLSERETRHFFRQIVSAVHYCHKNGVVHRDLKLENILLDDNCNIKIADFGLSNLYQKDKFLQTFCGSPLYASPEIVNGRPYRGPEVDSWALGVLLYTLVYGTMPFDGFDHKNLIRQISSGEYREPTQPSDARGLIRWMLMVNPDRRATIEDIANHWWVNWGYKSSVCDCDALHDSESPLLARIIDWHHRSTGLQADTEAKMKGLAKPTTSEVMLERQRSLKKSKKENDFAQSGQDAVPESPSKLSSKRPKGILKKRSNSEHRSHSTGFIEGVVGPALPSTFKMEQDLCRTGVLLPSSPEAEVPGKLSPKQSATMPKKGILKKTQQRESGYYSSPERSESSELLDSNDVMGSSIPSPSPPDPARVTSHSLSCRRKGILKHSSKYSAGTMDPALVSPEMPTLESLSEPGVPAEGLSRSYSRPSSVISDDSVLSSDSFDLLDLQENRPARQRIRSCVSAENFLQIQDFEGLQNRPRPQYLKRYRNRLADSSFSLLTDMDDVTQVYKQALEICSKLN
Description: In Vitro Assay to Determine the Inhibitory Effect of Compounds in the Patent on NUAK1 Enzymatic Activity
The in vitro NUAK1 enzymatic assay was carried out at Eurofins Discovery to evaluate the inhibitory effect of the compounds presented in the invention. The assay protocol is as follow: the compound to be tested was mixed with NUAK1(h) enzyme and 300 μM […] substrate in 8 mM MOPS (pH 7.0) buffer containing 0.2 mM EDTA and incubated at room temperature. A Mg/ATP mixture containing 10 mM magnesium acetate and 45 μM [y-33P]-ATP was added to start the reaction. After incubation for 40 min at room temperature, the reaction was terminated by adding 0.5% phosphoric acid. Then, 10 μL of the reaction mix was spotted onto a P30 filter paper followed with four times of wash with 0.425% phosphoric acid solution (4 min each time), and one time wash with methanol. The filter paper was air-dried and counted in a liquid scintillation counter. The values obtained were plotted against the drug concentration and the IC50 was calculated.
Table 1 summarizes the inhibitory effect (IC50) of compounds tested on the NUAK1 enzyme activity in the present invention. ++++ indicates IC50≤10 nM; […]; ++ indicates 100 nM<IC50≤1 μM; + indicates IC50>1 μM.

[2] = test system: HEC-1-B human endometrial cancer cells; assay: CTG (CellTiter-Glo) proliferation assay on HEC-1-B cells, 7 days; format: cell-based; details: 168 h, 7 days incubation, read-out: IC50, inhibitory effect on proliferation of Hec-1B cells
Description: CTG Assay to Evaluate the Inhibitory Effect of Compounds on HEC-1-B Human Endometrial Cancer Cells
Human endometrial cancer HEC-1-B cells were resuscitated and cultured in complete medium (MEM medium+10% FBS). When reaching about 80% confluence, the cells were gently blown away from the bottom of the culture dish with a 1 mL pipette. The cells were collected and centrifuged at 500 rpm for 3 min. The supernatant was discarded and the cell pellet was resuspend in fresh medium. Cells were counted to determine cell density and seeded into 96-well plates at a density of 1000 cells per well and incubated overnight at 37° C. in a 5% CO2 incubator. In the next day, the compounds in storage solution was serially diluted with DMSO at a ratio of 1:3 for a total of 9 concentrations. Two μL of each serially diluted solution was added to 98 μL of cell culture medium ([…]), while DMSO was mixed with culture medium similarly to be served as control. The compound dilutions were shaken and mixed. The cell culture plate with cells was removed from CO2 incubator, the culture medium was aspirated from each well, 135 μL of fresh medium was added to each well followed with 15 μL of the compound dilutions. The plates were incubated at 37° C. for 7 days in a 5% CO2 incubator. One hundred μL CellTiter-Glo reagent was added to each well and the plate was vortexed for 2 min and incubated for 10 min to fully lyse the cells. The chemiluminescence values were read using a plate reader.
The chemiluminescence values were plotted against compound concentrations to calculate the inhibitory activity of each compound on cell proliferation Cell inhibition rate (%)=(chemiluminescence value tested compound−chemiluminescence value DMSO control)/(chemiluminescence value medium control−chemiluminescence valueDMSO control)×100%.
A nonlinear S-curve regression was fitted using XLFit software to fit the data to derive a dose-effect curve, from which the IC50 values were calculated. The curve equation was Y=Bottom+(Top-Bottom)/(1+10{acute over ( )}((LogIC50-X)×slope)), where Y is the cellular inhibition rate, X is the compound concentration, Bottom refers to the lowest inhibition rate, and Top refers to the highest inhibition rate.
Table 3 summarizes the inhibitory effects (IC50) of the compounds on the proliferation of Hec-1B cells, Where ++++ indicates 100 nM<IC50≤500 nM; +++ indicates 500 nM<IC50≤1 μM; ++ indicates 1 μM<IC50≤10 μM; + indicates IC50>10 μM.

[3] = biological target: T2, NUAK2(h) enzyme (Homo sapiens, UniProt Q9H093); assay: In vitro NUAK2 enzymatic assay (Eurofins Discovery, [γ-33P]-ATP filter assay); format: biochemical; details: 45 μM ATP, 40 min, room temperature; read-out: IC50, inhibitory effect on NUAK2 enzyme activity
T2 construct: purchased Eurofins Discovery
T2 sequence (Q9H093 1-628): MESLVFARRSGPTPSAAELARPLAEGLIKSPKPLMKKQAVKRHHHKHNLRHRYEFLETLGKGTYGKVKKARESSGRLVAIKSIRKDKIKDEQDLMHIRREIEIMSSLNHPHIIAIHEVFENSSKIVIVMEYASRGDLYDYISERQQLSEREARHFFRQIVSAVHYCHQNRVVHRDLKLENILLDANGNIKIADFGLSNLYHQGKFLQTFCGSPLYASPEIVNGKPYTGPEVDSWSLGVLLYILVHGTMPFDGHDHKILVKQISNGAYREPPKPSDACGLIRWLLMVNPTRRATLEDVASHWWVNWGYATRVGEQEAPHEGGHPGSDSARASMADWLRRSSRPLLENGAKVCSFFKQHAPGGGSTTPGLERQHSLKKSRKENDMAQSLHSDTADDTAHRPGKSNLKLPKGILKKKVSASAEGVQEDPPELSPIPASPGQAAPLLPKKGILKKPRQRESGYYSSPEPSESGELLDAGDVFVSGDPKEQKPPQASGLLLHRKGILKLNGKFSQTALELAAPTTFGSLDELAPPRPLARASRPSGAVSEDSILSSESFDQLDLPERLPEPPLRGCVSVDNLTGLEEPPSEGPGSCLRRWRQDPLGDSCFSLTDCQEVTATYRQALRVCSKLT
Description: In Vitro Assay to Determine the Inhibitory Effect of Compounds in the Patent on NUAK2 Enzymatic Activity
The in vitro NUAK2 enzymatic assay was carried out at Eurofins Discovery to evaluate the inhibitory effect of the compounds presented in the invention. The assay protocol is as follow: the compound to be tested was mixed with NUAK2(h) enzyme and 300 […] substrate in 8 mM MOPS (pH 7.0) buffer containing 0.2 mM EDTA. A Mg/ATP mixture containing 10 mM magnesium acetate and 45 μM [γ-33P]-ATP was added to start the reaction. After incubation for 40 min at room temperature, the reaction was terminated by adding 0.5% phosphoric acid. Then 10 μL of the reaction mix was spotted onto a P30 filter paper. The filter paper was washed four times with 0.425% phosphoric acid with 4 min for each wash, and one time with methanol. The filter paper was air-dried and counted in a liquid scintillation counter. The values obtained were plotted against the drug concentration and the IC50 was calculated.
Table 1 summarizes the inhibitory effect (IC50) of compounds on the NUAK2 enzyme activity in the present invention. ++++ indicates IC50≤10 nM; +++ indicates 10 nM<IC50≤100 nM; ++ indicates 100 nM<IC50≤1 μM; + indicates IC50>1 μM.

Row | SMILES | IC50 [1] | IC50 [2] | IC50 [3]
1 | COc1cc(N2CCN(C)CC2)ccc1Nc1ncc2cnc(=O)n(C3CCCC3)c2n1 [Example 5, 1-cyclopentyl-7-((2-methoxy-4-(4-methylpiperazin-1-yl)phenyl)amino)pyrimido[4,5-d]pyrimidin-2(1H)-one] | 100 to 1000 nM | 500 to 1000 nM | ≤ 10 nM
2 | COc1cc(N2CCN(C)CC2)ccc1Nc1ncc2cnc(=O)n(C3CCCCC3)c2n1 [Example 6, 1-cyclohexyl-7-((2-methoxy-4-(4-methylpiperazin-1-yl)phenyl)amino)pyrimido[4,5-d]pyrimidin-2(1H)-one] | 100 to 1000 nM | 500 to 1000 nM | 10 to 100 nM
3 | Cc1cc(N2CCN(C)CC2)ccc1Nc1ncc2cnc(=O)n(C3CCCC3)c2n1 [Example 10, 1-cyclopentyl-7-((2-methyl-4-(4-methylpiperazin-1-yl)phenyl)amino)pyrimido[4,5-d]pyrimidin-2(1H)-one] | 100 to 1000 nM | 500 to 1000 nM | 10 to 100 nM
4 | COc1cc(N2CCN(C)CC2)ccc1Nc1nnc2ccc(=O)n(C3CCCC3)c2n1 [Example 24, 5-cyclopentyl-3-((2-methoxy-4-(4-methylpiperazin-1-yl)phenyl)amino)pyrido[2,3-e][1,2,4]triazin-6(5H)-one] | 100 to 1000 nM | 500 to 1000 nM | 10 to 100 nM
5 | COc1cc(N2CCN(C)CC2)ccc1Nc1ncc2cc(C#N)c(=O)n(C3CCCC3)c2n1 [Example 26, 8-cyclopentyl-2-((2-methoxy-4-(4-methylpiperazin-1-yl)phenyl)amino)-7-oxo-7,8-dihydropyrido[2,3-d]pyrimidine-6-carbonitrile] | 10 to 100 nM | 500 to 1000 nM | 10 to 100 nM
6 | COc1cc(N2CCN(C)CC2)ccc1Nc1ncc2c(C)cc(=O)n(C3CCCC3)c2n1 [Example 27, 8-cyclopentyl-2-((2-methoxy-4-(4-methylpiperazin-1-yl)phenyl)amino)-5-methylpyrido[2,3-d]pyrimidin-7(8H)-one] | 100 to 1000 nM | 1000 to 10000 nM | 100 to 1000 nM
7 | COc1cc(N2CCN(C)CC2)ccc1Nc1ncc2c(n1)N(C1CCCC1)C(=O)CC2 [Example 28, 8-cyclopentyl-2-((2-methoxy-4-(4-methylpiperazin-1-yl)phenyl)amino)-5,8-dihydropyrido[2,3-d]pyrimidin-7(6H)-one] | 100 to 1000 nM | 1000 to 10000 nM | 10 to 100 nM
8 | COc1cc(N2CCN(C)CC2)ccc1Nc1ncc2c(n1)N(C1CCCCC1)C(=O)CC2 [Example 29, 8-cyclohexyl-2-((2-methoxy-4-(4-methylpiperazin-1-yl)phenyl)amino)-5,8-dihydropyrido[2,3-d]pyrimidin-7(6H)-one] | 10 to 100 nM | 500 to 1000 nM | 10 to 100 nM

Results, then the molecule that gave them:

Row | IC50 [1] | IC50 [2] | IC50 [3] | SMILES
9 | 10 to 100 nM | 1000 to 10000 nM | 10 to 100 nM | COc1cc(N2CCN(C)CC2)ccc1Nc1ncc2c(n1)N(C1CCCC1)C(=O)NC2 [Example 2, 1-cyclopentyl-7-((2-methoxy-4-(4-methylpiperazin-1-yl)phenyl)amino)-3,4-dihydropyrimido[4,5-d]pyrimidin-2(1H)-one]
10 | 10 to 100 nM | 500 to 1000 nM | ≤ 10 nM | COc1cc(N2CCN(C)CC2)ccc1Nc1ncc2ccc(=O)n(C3CCCC3)c2n1 [Example 19, 8-cyclopentyl-2-((2-methoxy-4-(4-methylpiperazin-1-yl)phenyl)amino)pyrido[2,3-d]pyrimidin-7(8H)-one]
11 | 10 to 100 nM | > 10000 nM | 10 to 100 nM | COc1cc(N2CCN(C)CC2)ccc1Nc1ncc2cc(C)c(=O)n(C3CCCC3)c2n1 [Example 20, 8-cyclopentyl-2-((2-methoxy-4-(4-methylpiperazin-1-yl)phenyl)amino)-6-methylpyrido[2,3-d]pyrimidin-7(8H)-one]
12 | 10 to 100 nM | 100 to 500 nM | 100 to 1000 nM | COc1cc(N2CCN(C)CC2)ccc1Nc1ncc2cc(C)c(=O)n(C3CC3)c2n1 [Example 21]
13 | ≤ 10 nM | > 10000 nM | ≤ 10 nM | COc1cc(N2CCN(C)CC2)ccc1Nc1ncc2ccc(=O)n(C3CCCCC3)c2n1 [Example 22, 8-cyclohexyl-2-((2-methoxy-4-(4-methylpiperazin-1-yl)phenyl)amino)pyrido[2,3-d]pyrimidin-7(8H)-one]
14 | 10 to 100 nM | 100 to 500 nM | 100 to 1000 nM | COc1cc(N2CCN(C)CC2)ccc1Nc1ncc2ccc(=O)n(C3CC3)c2n1 [Example 23, 8-cyclopropyl-2-((2-methoxy-4-(4-methylpiperazin-1-yl)phenyl)amino)pyrido[2,3-d]pyrimidin-7(8H)-one]
